Data from patent US6649654B1, “Methods for identifying and using IKK inhibitors” (The Regents of the University of California, priority 1999, dated 2003).
Entries after “also recorded” stand apart in the source; their conditions may differ.

Experiments:
[1] = test system: activated monocytes; conditions: cited from earlier work
[2] = test system: NF-κB; test: NF-κB activation by EMSA in Jurkat cells stimulated with TNFα or TPA; format: cell-based, human
Experimental: (§1) Cells used in the experiments described herein were cultured in either RPMI 1640 (Jurkat cells) or DMEM (HeLa and COS cells), supplemented with 10% FBS and antibiotics. Cells were stimulated with either 25 ng/ml TPA, 20 ng/ml recombinant TNFα, or 10 ng/ml interleukin 1β (Sigma). PGA1, 15dPGJ2, T×B2, LTB4, AA and other PGs (Cayman) dissolved in ethanol were used as well, as known in the art (See e.g., Rossi et al., 94:746-750 [1997]). Controls received equal amounts of ethanol. Transfections were performed using Lipofectamine Plus (GIBCO) for HeLa and COS cells and DEAE-dextran (Sigma) for Jurkat cells. Xpress-tagged NIK, Xpress-tagged MEKK1, HA-tagged IKKα, and HA-tagged IKKβ were also used (See e.g., Zandi et al., Science 281:1360-1363 [1998]; and Delhase et al., Science 284:309-313 [1999]). COX2 and cPLA2 expression vectors were obtained from Dr. L. Feng (See also, Hirose et al., J. Am. Soc. Nephrol., 9:408-416 [1998]). PGD synthase was cloned from HT29 colon carcinoma cell line cDNA by PCR and subcloned into a pCDNA3 vector. Cells were lysed in buffer B (50 mM Tris-HCl, pH 7.5, 400 mM NaCl, 1 mM EDTA, 1 mM EGTA, 1% Triton, 0.5% NP-40, 10% glycerol, and supplemented with 20 mM β-glycerophosphate, 10 mM PNPP, 500 mM Na3VO4, 1 mM PMSF, 20 μg/ml aprotinin, 2.5 μg/ml leupeptin, 8.3 μg/ml bestatin, 1.7 μg/ml pepstatin, and 2 mM DTT). […]

[3] = test system: IκBα; test: IκBα degradation in stimulated Jurkat cells (immunoblot); format: cell-based, human; conditions: TNFα or TPA
Experimental: as §1, with “vector.” for “vector. Cells were lysed in buffer B (50 mM Tris-HCl, pH 7.5, 400 mM NaCl, 1 mM EDTA, 1 mM EGTA, 1% Triton, 0.5% NP-40, 10% glycerol, and supplemented with 20 mM β-glycerophosphate, 10 mM PNPP, 500 mM Na3VO4, 1 mM PMSF, 20 μg/ml aprotinin, 2.5 μg/ml leupeptin, 8.3 μg/ml bestatin, 1.7 μg/ml pepstatin, and 2 mM DTT).”
In addition, recombinant IKKβ was expressed in Sf9 cells and purified as described (Zandi et al., supra). […] After 1.5 hours at 4° C., the immunoprecipitates were washed and the kinase activity determined. […]

[4] = test system: IKK; test: NIK-induced endogenous IKK activity in transfected COS cells; format: cell-based; conditions: PGA1 added 10 min or 18 h after transfection
Experimental: as §1, with “vector.” for “vector. Cells were lysed in buffer B (50 mM Tris-HCl, pH 7.5, 400 mM NaCl, 1 mM EDTA, 1 mM EGTA, 1% Triton, 0.5% NP-40, 10% glycerol, and supplemented with 20 mM β-glycerophosphate, 10 mM PNPP, 500 mM Na3VO4, 1 mM PMSF, 20 μg/ml aprotinin, 2.5 μg/ml leupeptin, 8.3 μg/ml bestatin, 1.7 μg/ml pepstatin, and 2 mM DTT).”
(§2) Cell lysates were incubated with anti-IKKα (Pharmingen), anti-HA (12CA5; Pharmingen), anti-JNK1 (333.8; Pharmingen), or anti-p38 (New England Biolabs) for 2 hours. […] Endogenous IKK, HA-tagged IKKα, endogenous JNK1, and p38 activities were determined with GST-1κBα(1-54), GST-c-Jun(1-79), and GST-ATF2 as substrates.

[5] = biological target: IKK (Homo sapiens, UniProt O14920+O15111); test: Endogenous IKK activity (kinase assay) in Jurkat cells stimulated with TNFα or TPA; format: cell-based; design: endogenous in cells
Experimental: as §1, with “vector.” for “vector. Cells were lysed in buffer B (50 mM Tris-HCl, pH 7.5, 400 mM NaCl, 1 mM EDTA, 1 mM EGTA, 1% Triton, 0.5% NP-40, 10% glycerol, and supplemented with 20 mM β-glycerophosphate, 10 mM PNPP, 500 mM Na3VO4, 1 mM PMSF, 20 μg/ml aprotinin, 2.5 μg/ml leupeptin, 8.3 μg/ml bestatin, 1.7 μg/ml pepstatin, and 2 mM DTT).”
as §2, with “substrates. […]” for “substrates.”

[6] = biological target: JNK (Homo sapiens, UniProt P45983); test: JNK activation in TPA-stimulated Jurkat cells; format: cell-based; design: endogenous in cells; host or cells: Jurkat; conditions: 24 μM PGA1, TPA
Experimental: as §1, with “vector.” for “vector. Cells were lysed in buffer B (50 mM Tris-HCl, pH 7.5, 400 mM NaCl, 1 mM EDTA, 1 mM EGTA, 1% Triton, 0.5% NP-40, 10% glycerol, and supplemented with 20 mM β-glycerophosphate, 10 mM PNPP, 500 mM Na3VO4, 1 mM PMSF, 20 μg/ml aprotinin, 2.5 μg/ml leupeptin, 8.3 μg/ml bestatin, 1.7 μg/ml pepstatin, and 2 mM DTT).”
as §2, with “substrates. […]” for “substrates.”

Chain of IKK (Homo sapiens, UniProt O14920+O15111) (O14920 whole entry): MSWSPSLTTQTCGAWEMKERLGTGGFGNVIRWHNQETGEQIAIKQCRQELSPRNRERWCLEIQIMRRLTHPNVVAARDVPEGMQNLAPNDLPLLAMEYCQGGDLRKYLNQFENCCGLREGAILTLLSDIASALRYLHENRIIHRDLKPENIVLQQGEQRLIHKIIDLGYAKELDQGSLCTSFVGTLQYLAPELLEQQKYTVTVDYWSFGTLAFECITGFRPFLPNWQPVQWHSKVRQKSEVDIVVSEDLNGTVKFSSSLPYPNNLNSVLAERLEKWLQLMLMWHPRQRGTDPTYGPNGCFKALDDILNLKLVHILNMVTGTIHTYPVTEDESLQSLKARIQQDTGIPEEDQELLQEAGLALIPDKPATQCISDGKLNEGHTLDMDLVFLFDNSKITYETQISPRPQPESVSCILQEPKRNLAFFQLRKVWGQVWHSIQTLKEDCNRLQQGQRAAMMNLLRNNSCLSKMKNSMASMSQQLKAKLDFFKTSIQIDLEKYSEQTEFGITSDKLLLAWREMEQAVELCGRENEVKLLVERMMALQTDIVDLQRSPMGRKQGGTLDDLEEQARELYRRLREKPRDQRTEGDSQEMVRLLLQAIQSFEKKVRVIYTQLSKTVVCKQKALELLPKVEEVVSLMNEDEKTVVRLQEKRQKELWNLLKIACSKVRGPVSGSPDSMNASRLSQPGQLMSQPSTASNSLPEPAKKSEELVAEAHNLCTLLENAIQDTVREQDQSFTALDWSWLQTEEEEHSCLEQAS
Chain of IKK (Homo sapiens, UniProt O14920+O15111) (O15111 whole entry): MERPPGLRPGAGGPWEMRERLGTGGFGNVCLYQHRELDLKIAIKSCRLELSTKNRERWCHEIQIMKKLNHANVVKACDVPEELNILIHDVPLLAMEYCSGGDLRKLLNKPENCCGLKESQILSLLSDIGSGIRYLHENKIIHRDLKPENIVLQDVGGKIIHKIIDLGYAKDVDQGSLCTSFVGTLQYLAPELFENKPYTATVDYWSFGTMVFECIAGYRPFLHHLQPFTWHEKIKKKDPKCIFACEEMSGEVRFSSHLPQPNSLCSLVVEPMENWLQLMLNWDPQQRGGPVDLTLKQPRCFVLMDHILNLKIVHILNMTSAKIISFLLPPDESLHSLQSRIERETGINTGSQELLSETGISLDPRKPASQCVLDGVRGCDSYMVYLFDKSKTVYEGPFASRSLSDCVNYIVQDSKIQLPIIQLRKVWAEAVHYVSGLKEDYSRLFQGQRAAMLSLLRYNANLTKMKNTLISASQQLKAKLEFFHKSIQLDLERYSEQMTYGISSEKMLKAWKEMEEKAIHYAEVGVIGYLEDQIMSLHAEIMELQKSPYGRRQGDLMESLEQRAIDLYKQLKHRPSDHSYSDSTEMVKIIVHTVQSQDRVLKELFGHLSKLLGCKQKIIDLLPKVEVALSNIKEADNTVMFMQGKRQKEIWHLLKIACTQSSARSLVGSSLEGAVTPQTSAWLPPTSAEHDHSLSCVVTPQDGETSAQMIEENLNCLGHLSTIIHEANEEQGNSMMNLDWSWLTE
Chain of IKK (Homo sapiens, UniProt O14920+O15111) (Q9Y6K9 whole entry partner): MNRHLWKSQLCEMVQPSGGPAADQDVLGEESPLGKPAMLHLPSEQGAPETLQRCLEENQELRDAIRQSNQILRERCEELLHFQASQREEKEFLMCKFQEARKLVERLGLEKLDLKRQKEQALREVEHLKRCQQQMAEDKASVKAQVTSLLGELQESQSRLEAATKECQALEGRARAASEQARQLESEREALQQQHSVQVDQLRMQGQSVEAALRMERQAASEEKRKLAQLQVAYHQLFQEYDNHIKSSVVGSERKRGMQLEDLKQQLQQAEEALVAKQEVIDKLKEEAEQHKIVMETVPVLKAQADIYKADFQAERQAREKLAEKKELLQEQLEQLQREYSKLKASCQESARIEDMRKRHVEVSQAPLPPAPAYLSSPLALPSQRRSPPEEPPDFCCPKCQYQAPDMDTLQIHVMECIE
Chain of JNK (P45983 whole entry): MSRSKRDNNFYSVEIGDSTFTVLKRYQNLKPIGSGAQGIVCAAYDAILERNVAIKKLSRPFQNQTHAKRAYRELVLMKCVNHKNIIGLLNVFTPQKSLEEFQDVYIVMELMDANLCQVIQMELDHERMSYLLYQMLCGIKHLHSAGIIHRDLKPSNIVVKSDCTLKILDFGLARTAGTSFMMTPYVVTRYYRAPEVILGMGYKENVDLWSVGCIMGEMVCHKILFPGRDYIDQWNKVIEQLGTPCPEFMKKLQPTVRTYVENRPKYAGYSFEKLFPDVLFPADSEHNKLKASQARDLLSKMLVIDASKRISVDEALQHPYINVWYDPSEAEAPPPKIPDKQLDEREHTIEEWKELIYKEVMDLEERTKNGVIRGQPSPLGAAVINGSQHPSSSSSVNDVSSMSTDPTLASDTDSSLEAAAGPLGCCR

Row | IC50 ([2]; Homo sapiens, read-out: half-maximal inhibitory (IC50) concentration towards NF-κB) [µM] | effect on IKK activity after 15 minute exposure ([5]; 15-min exposure, TPA 15 minutes) | effect on activation of JNK [6] | Compound | production of pro-inflammatory cytokines [1] | effect on NF-κB activation ([2]; TNFα or TPA) | effect on IκBα degradation [3] | effect on NIK-induced activation of endogenous IKK activity [4] | effect on IKK activity ([5]; 24 μM PGA1 2 hours, TNFα or TPA)
1 | – | – | – | CCCCC/C=C/C=C1/C(=O)C=C[C@@H]1C/C=C\CCCC(=O)O [15dPGJ2, 15-deoxy-Δ^12-14-PGJ2] | inhibits | – | – | – | –
2 | 12 | partially inhibit | did not inhibit | CCCCC[C@H](O)/C=C/[C@H]1C=CC(=O)C1CCCCCCC(=O)O (some centres unmarked) [PGA1, prostaglandin A1] | – | prevented | prevent IκBα degradation; also recorded: prevented | inhibited; also recorded: prevents | inhibit IKK activity; also recorded: inhibited
